Test results as given in patent publication US4886805A, “Novel aminoalkylthio derivatives of triazolopyridine or triazoloquinoline, the processes for their preparation, and drugs, useful especially as analgesics, in which they are present” (Centre D'Activite Et De Recherches Pharmaceutique …, priority 1986, dated 1989).

System: pain reactions caused by phenylbenzoquinone
Assay: Siegmund test with phenylbenzoquinone (analgesic activity after oral administration)
Type: in vivo, male mice, CD1 strain (Charles River)
Details: Mus musculus, po, read-out: AD50 confidence limits
Description: This method makes it possible to assess the analgesic activity of molecules having both a peripheral and a central action.
Male mice of the CD1 strain (Charles River) and OF1 strain (Iffa Credo), weighing from 19 to 22 g, were used for the Siegmund test and the Eddy test respectively. The tests were carried out at an ambient temperature of 21°±2° C.
The products were suspended in an aqueous mixture of 1% gum arabic, 0.1% sodium chloride and 0.001% Tween 80.
One hour after administration of the product studied, 0.20 to 0.22 ml of a 0.02% aqueous-alcoholic solution of phenylbenzoquinone is administered to the mice intraperitoneally.
The number of pain reactions (twists and stretches) is counted from the 5th to the 10th minute.
The products of the examples studied were administered to groups of 6 to 12 mice by gastric intubation (0.5 ml/20 g), one hour before phenylbenzoquinone, according to the following dosage schedule:
The percentage inhibition of pain manifestations was calculated from the mean numbers of twists per group.
The 50% active doses and their confidence limits were determined from the linear regression carried out on the parameters measured.

Row | Compound | ED50 [mg/kg]
1 | Cl.Cl.Fc1ccc(N2CCNCC2)c(F)c1 [Example 1, 4-(2,4-Difluorophenyl)piperazine dihydrochloride] | 2.16
2 | Fc1ccc(C2=CCN(CCSc3nnc4ccccn34)CC2)cc1 [Example 45, 3-[2-(4-(4-Fluorophenyl)-1,2,3,6-tetrahydropyridin-1-yl)ethylmercapto]-1,2,4-triazolo(4,3-a)pyridine] | 33
3 | Clc1ccc(C2=CCN(CCSc3nnc4ccccn34)CC2)cc1 [Example 48, 3-[2-(4-(4-Chlorophenyl)-1,2,3,6-tetrahydropyridin-1-yl)ethylmercapto]-1,2,4-triazolo(4,3-a)pyridine] | 16.1

Same assay, conditions: Mus musculus; 50% active dose with confidence limits; oral (gastric intubation), 1 hour before phenylbenzoquinone i.p.; twists and stretches counted 5th to 10th minute; mice; read-out: AD50 confidence limits

Row | Compound | ED50 [mg/kg]
4 | FC(F)(F)c1cccc(N2CCN(CCSc3nnc4c(C(F)(F)F)cccn34)CC2)c1.O=C(O)/C=C\C(=O)O [Example 24, 3-[2-(4-(3-Trifluoromethylphenyl)piperazin-1-yl)ethylmercapto]-8-trifluoromethyl-1,2,4-triazolo(4,3-a)pyridine maleate] | 4.53
5 | Fc1ccc(N2CCN(CCSc3nnc4c(C(F)(F)F)cccn34)CC2)c(F)c1 [Example 28, 3-[2-(4-(2,4-Difluorophenyl)piperazin-1-yl)ethylmercapto]-8-trifluoromethyl-1,2,4-triazolo(4,3-a)pyridine] | 22.4
6 | Cc1ccc2nnc(SCCN3CCN(c4cccc(C(F)(F)F)c4)CC3)n2c1.Cl.Cl [Example 31, 3-[2-(4-(3-Trifluoromethylphenyl)piperazin-1-yl)ethylmercapto]-6-methyl-1,2,4-triazolo(4,3-a)pyridine dihydrochloride] | 3.6
7 | Fc1ccc(N2CCN(CCCSc3nnc4c(C(F)(F)F)cccn34)CC2)c(F)c1 [Example 32, 3-[3-(4-(2,4-Difluorophenyl)piperazin-1-yl)propylmercapto]-8-trifluoromethyl-1,2,4-triazolo(4,3-a)pyridine] | 12.6
8 | FC(F)(F)c1cccc(N2CCN(CCSc3nnc4ccccn34)CC2)c1.O=C(O)/C=C\C(=O)O [Example 33, 3-[2-(4-(3-Trifluoromethylphenyl)piperazin-1-yl)ethylmercapto]-1,2,4-triazolo(4,3-a)pyridine maleate] | 1.71
9 | Cl.Cl.Fc1ccccc1N1CCN(CCSc2nnc3ccccn23)CC1 [Example 41, 3-[2-(4-(2-Fluorophenyl)piperazin-1-yl)ethylmercapto]-1,2,4-triazolo(4,3-a)pyridine dihydrochloride] | 3.19
10 | Fc1ccc(N2CCN(CCCSc3nnc4ccccn34)CC2)c(F)c1 [Example 43, 3-[3-(4-(2,4-Difluorophenyl)piperazin-1-yl)propylmercapto]-1,2,4-triazolo(4,3-a)pyridine] | 13.9
11 | Fc1ccc(N2CCN(CCSc3nnc4ccccn34)CC2)c(F)c1 [Example 44, 3-[2-(4-(2,4-Difluorophenyl)piperazin-1-yl)ethylmercapto]-1,2,4-triazolo(4,3-a)pyridine] | 11
12 | Clc1cccc(N2CCN(CCSc3nnc4ccccn34)CC2)c1 [Example 49, 3-[2-(4-(3-Chlorophenyl)piperazin-1-yl)ethylmercapto]-1,2,4-triazolo(4,3-a)pyridine] | 2.45
13 | FC(F)(F)c1cccc(N2CCN(CCCSc3nnc4ccc5ccccc5n34)CC2)c1 [Example 57, 1-[3-(4-(3-Trifluoromethylphenyl)piperazin1-yl)propylmercapto]-s-triazolo(4,3-a)quinoline] | 8.56
14 | Cc1cc2ccccc2n2c(SCCCN3CCN(c4cccc(C(F)(F)F)c4)CC3)nnc12 [Example 59, 1-[3-(4-(3-Trifluoromethylphenyl)piperazin-1-yl)propylmercapto]-4-methyl-s-triazolo(4,3-a)quinoline] | 14.1
15 | Cc1cc2nnc(SCCN3CCN(c4ccc(F)cc4F)CC3)n2c2ccccc12 [Example 62, 1-[2-(4-(2,4-Difluorophenyl)piperazin-1-yl)ethylmercapto]-5-methyl-s-triazolo(4,3-a)quinoline] | 11
16 | Cc1cc2ccccc2n2c(SCCN3CCN(c4cccc(C(F)(F)F)c4)CC3)nnc12 [Example 63, 1-[2-(4-(3-Trifluoromethylphenyl)piperazin-1-yl)ethylmercapto]-4-methyl-s-triazolo(4,3-a)quinoline] | 8.17
17 | Cc1cc2ccccc2n2c(SCCCN3CCN(c4ccc(F)cc4F)CC3)nnc12 [Example 66, 1-[3-(4-(2,4-Difluorophenyl)piperazin-1-yl)propylmercapto]-4-methyl-s-triazolo(4,3-a)quinoline] | 17.9
